Results from PubChem BioAssay AID248 (DTP/NCI, 2004).
Where “and” joins values, the source holds several entries; their conditions need not be identical. Identical values can stand only once. Toxic doses and inconclusive results are not listed. Cut-off read from the data, not from the text of the source: active = T/C of 150% or more; inactive = T/C below 125%.

Tested on: L1210 leukemia ip in BDF1 mice, survival T/C
Experiment: NCI In Vivo Anticancer Drug Screen. Data for tumor model L1210 Leukemia (intraperitoneal) in B6D2F1 (BDF1) mice
Details: endpoint: mean survival time, higher = longer survival
Procedure: The antitumor activity of compounds was measured in mice bearing transplantable tumors. Survival or tumor size were measured and the results are expressed as the measurement made in the treated group (T) divided by the measurement made in the vehicle treated control group (C). The tumor model used in this assay is L1210 Leukemia (intraperitoneal) in B6D2F1 (BDF1) mice

[1] = dose: 100.0 mg/kg/injection, schedule: Q01DX009 (ip), vehicle: saline with Tween-80
[2] = dose: 100.0 mg/kg/injection, schedule: Q04DX003 (ip), vehicle: saline with Tween-80
[3] = dose: 200.0 mg/kg/injection, schedule: Q01DX009 (ip), vehicle: saline with Tween-80
[4] = dose: 200.0 mg/kg/injection, schedule: Q04DX003 (ip), vehicle: saline with Tween-80
[5] = dose: 400.0 mg/kg/injection, schedule: Q01DX009 (ip), vehicle: saline with Tween-80
[6] = dose: 400.0 mg/kg/injection, schedule: Q04DX003 (ip), vehicle: saline with Tween-80
[7] = dose: 50.0 mg/kg/injection, schedule: Q01DX001 (ip), vehicle: saline
[8] = dose: 100.0 mg/kg/injection, schedule: Q01DX001 (ip), vehicle: saline
[9] = dose: 200.0 mg/kg/injection, schedule: Q01DX001 (ip), vehicle: saline
[10] = dose: 100.0 mg/kg/injection, schedule: Q01DX009 (ip), vehicle: Klucel (hydroxypropylcellulose) (HPC)
[11] = dose: 200.0 mg/kg/injection, schedule: Q01DX009 (ip), vehicle: Klucel (hydroxypropylcellulose) (HPC)
[12] = dose: 100.0 mg/kg/injection, schedule: Q04DX003 (ip), vehicle: alcohol
[13] = dose: 200.0 mg/kg/injection, schedule: Q04DX003 (ip), vehicle: alcohol
[14] = dose: 400.0 mg/kg/injection, schedule: Q04DX003 (ip), vehicle: alcohol
[15] = dose: 100.0 mg/kg/injection, schedule: Q01DX001 (ip), vehicle: Klucel (hydroxypropylcellulose) (HPC)
[16] = dose: 100.0 mg/kg/injection, schedule: Q04DX003 (ip), vehicle: Klucel (hydroxypropylcellulose) (HPC)
[17] = dose: 200.0 mg/kg/injection, schedule: Q01DX001 (ip), vehicle: Klucel (hydroxypropylcellulose) (HPC)
[18] = dose: 200.0 mg/kg/injection, schedule: Q04DX003 (ip), vehicle: Klucel (hydroxypropylcellulose) (HPC)
[19] = dose: 400.0 mg/kg/injection, schedule: Q01DX001 (ip), vehicle: Klucel (hydroxypropylcellulose) (HPC)
[20] = dose: 400.0 mg/kg/injection, schedule: Q04DX003 (ip), vehicle: Klucel (hydroxypropylcellulose) (HPC)
[21] = dose: 400.0 mg/kg/injection, schedule: Q01DX009 (ip), vehicle: Klucel (hydroxypropylcellulose) (HPC)

Measured: T/C

COC(=O)C(CSCSC)NC(=O)/C=C/c1ccccc1C (stereo unspecified)
inactive: [1] 101 % of control | [2] 95 % of control | [3] 101 % of control | [4] 93 % of control | [5] 113 % of control | [6] 97 % of control

NCCCC(N)C(=O)NCCCCCCNCCCCCCNC(=O)C(N)CCCN (stereo unspecified)
inactive: dose: 0.38 mg/kg/injection, schedule: Q01DX Z (ip), vehicle: saline 94 % of control | dose: 0.75 mg/kg/injection, schedule: Q01DX Z (ip), vehicle: saline 102 % of control | dose: 1.5 mg/kg/injection, schedule: Q01DX Z (ip), vehicle: saline 98 % of control | dose: 3.0 mg/kg/injection, schedule: Q01DX Z (ip), vehicle: saline 100 % of control and 106 % of control | dose: 10.0 mg/kg/injection, schedule: Q01DX Z (ip), vehicle: saline 93 % of control | dose: 30.0 mg/kg/injection, schedule: Q01DX Z (ip), vehicle: saline 96 % of control | [7] 101 % of control | [8] 98 % of control | dose: 100.0 mg/kg/injection, schedule: Q01DX Z (ip), vehicle: saline 91 % of control | [9] 95 % of control

COc1cc(N(CCCl)CCCl)ccc1/C=N\NC(=O)c1cccnc1
inactive: dose: 25.0 mg/kg/injection, schedule: Q01DX009 (ip), vehicle: Klucel (hydroxypropylcellulose) (HPC) 87 % of control | [7] 105 % of control | dose: 50.0 mg/kg/injection, schedule: Q01DX009 (ip), vehicle: Klucel (hydroxypropylcellulose) (HPC) 88 % of control | [8] 105 % of control | [10] 90 % of control | [9] 100 % of control | [11] 96 % of control | dose: 400.0 mg/kg/injection, schedule: Q01DX001 (ip), vehicle: saline 97 % of control

N#Cc1nn(CCCl)c(=O)c2ccccc12
inactive: dose: 100.0 mg/kg/injection, schedule: Q01DX001 (ip), vehicle: alcohol 98 % of control | [12] 95 % of control | dose: 200.0 mg/kg/injection, schedule: Q01DX001 (ip), vehicle: alcohol 107 % of control | [13] 97 % of control | dose: 400.0 mg/kg/injection, schedule: Q01DX001 (ip), vehicle: alcohol 107 % of control | [14] 87 % of control

CC12C(=O)OC(=O)C1C1C=CC2CC1 (stereo unspecified)
inactive: [2] 101 % of control | [4] 98 % of control | [6] 101 % of control

Cn1cnc([N+](=O)[O-])c1Sc1c[nH]c(=O)[nH]c1=O
inactive: dose: 25.0 mg/kg/injection, schedule: Q04DX003 (ip), vehicle: saline 107 % of control | dose: 50.0 mg/kg/injection, schedule: Q04DX003 (ip), vehicle: saline 96 % of control | dose: 100.0 mg/kg/injection, schedule: Q04DX003 (ip), vehicle: saline 104 % of control | dose: 200.0 mg/kg/injection, schedule: Q04DX003 (ip), vehicle: saline 93 % of control | dose: 400.0 mg/kg/injection, schedule: Q04DX003 (ip), vehicle: saline 94 % of control

CCOC(=O)c1csc(CNC(=O)c2ccccc2)n1
inactive: dose: 100.0 mg/kg/injection, schedule: Q01DX001 (ip), vehicle: saline with Tween-80 107 % of control | [1] 100 % of control | [2] 97 % of control | dose: 200.0 mg/kg/injection, schedule: Q01DX001 (ip), vehicle: saline with Tween-80 98 % of control | [3] 97 % of control | [4] 95 % of control | dose: 400.0 mg/kg/injection, schedule: Q01DX001 (ip), vehicle: saline with Tween-80 104 % of control | [5] 103 % of control | [6] 93 % of control

O=C(NCCCCCCCCCCCCNC(=O)Nc1ccc(C2=NCC(O)CN2)cc1)Nc1ccc(C2=NCC(O)CN2)cc1 (stereo unspecified)
inactive: dose: 62.5 mg/kg/injection, schedule: Q01DX Z (ip), vehicle: carboxymethylcellulose (CMC) 113 % of control | dose: 250.0 mg/kg/injection, schedule: Q01DX Z (ip), vehicle: carboxymethylcellulose (CMC) 122 % of control

CCCCCCCCCCc1ccccc1
inactive: dose: 12.5 mg/kg/injection, schedule: Q04DX002 (ip), vehicle: saline with Tween-80 100 % of control | dose: 25.0 mg/kg/injection, schedule: Q04DX002 (ip), vehicle: saline with Tween-80 97 % of control | dose: 50.0 mg/kg/injection, schedule: Q04DX002 (ip), vehicle: saline with Tween-80 93 % of control | dose: 200.0 mg/kg/injection, schedule: Q04DX002 (ip), vehicle: saline with Tween-80 112 % of control

CC(C)(C)C(=O)[CH-]C(=O)C(C)(C)C.CC(C)(C)C(=O)[CH-]C(=O)C(C)(C)C.CC(C)(C)C(=O)[CH-]C(=O)C(C)(C)C.CS(C)=O.[Er+3]
inactive: [15] 98 % of control | [16] 103 % of control | [17] 101 % of control | [18] 98 % of control | [19] 96 % of control | [20] 103 % of control

CO/N=C(\N)Oc1c(C)cccc1C
inactive: [10] 107 % of control | [11] 96 % of control | [21] 103 % of control

COc1ccc(-c2cnc(=S)[nH]c2N)cc1
inactive: [15] 116 % of control | [17] 121 % of control | [19] 119 % of control

CC(=O)OCC1OC(N2c3ccccc3CC2C)C(OC(C)=O)C(OC(C)=O)C1OC(C)=O (stereo unspecified)
inactive: dose: 25.0 mg/kg/injection, schedule: Q01DX001 (ip), vehicle: saline 94 % of control | [7] 94 % of control | [8] 94 % of control

Cc1ccc(S(=O)(=O)N2CCCC(=O)c3ccc(Cl)cc32)cc1
inactive: [10] 101 % of control | [16] 96 % of control | [11] 104 % of control | [18] 100 % of control | [21] 95 % of control | [20] 91 % of control

COc1ccc(C2CC(O)C3CCC2C3)cc1 (stereo unspecified)
inactive: dose: 100.0 mg/kg/injection, schedule: Q04DX002 (ip), vehicle: Klucel (hydroxypropylcellulose) (HPC) 93 % of control | dose: 200.0 mg/kg/injection, schedule: Q04DX002 (ip), vehicle: Klucel (hydroxypropylcellulose) (HPC) 97 % of control | dose: 400.0 mg/kg/injection, schedule: Q04DX002 (ip), vehicle: Klucel (hydroxypropylcellulose) (HPC) 93 % of control

Cc1ccc(OCCOc2ccc(N)cc2)cc1
inactive: [12] 92 % of control | [13] 95 % of control | [14] 90 % of control

CCC1=C(C)C(=O)C2CCCCC2C1=O (stereo unspecified)
inactive: [15] 105 % of control | dose: 100.0 mg/kg/injection, schedule: Q01DX009 (ip), vehicle: saline sonified 95 % of control | [17] 111 % of control | dose: 200.0 mg/kg/injection, schedule: Q01DX009 (ip), vehicle: saline sonified 97 % of control | [19] 96 % of control | dose: 400.0 mg/kg/injection, schedule: Q01DX009 (ip), vehicle: saline sonified 92 % of control
